Laboratory results from ChEMBL document CHEMBL3885881, “DrugMatrix”.

Species on record: Rattus norvegicus
Experiment: DrugMatrix - Regimen: Daily Repeat
Format: toxicity, organism-based, Sprague-Dawley
Design: regimen Daily Repeat, gender Male, age 6-8 weeks
Settings: in vivo, iv, vehicle 100 % SALINE; for ABSOLUTE BASOPHIL / ABSOLUTE EOSINOPHIL / ABSOLUTE LYMPHOCYTE / ABSOLUTE MONOCYTE / ABSOLUTE SEGMENTED NEUTROPHIL / BASOPHIL / EOSINOPHIL / ERYTHROCYTE COUNT / HEMATOCRIT / HEMOGLOBIN / LEUKOCYTE COUNT / LYMPHOCYTE / MEAN CORPUSCULAR HEMOGLOBIN / MEAN CORPUSCULAR HEMOGLOBIN CONCENTRATION / MEAN CORPUSCULAR VOLUME / MONOCYTE / NEUTROPHIL / NUCLEATED RED BLOOD CELLS / PLATELET COUNT: tissue Blood; for ALANINE AMINOTRANSFERASE / ALBUMIN / ALKALINE PHOSPHATASE / ASPARTATE AMINOTRANSFERASE / BLOOD UREA NITROGEN / CARBON DIOXIDE / CHLORIDE / CHOLESTEROL / CREATINE PHOSPHOKINASE / CREATININE / GLUCOSE / LACTATE DEHYDROGENASE / LIPASE / PHOSPHORUS / POTASSIUM / SODIUM / TOTAL BILIRUBIN / TOTAL PROTEIN / URIC ACID: tissue Plasma
[1] = 0 mg/kg, 72 h, dose level Control, time 3 day
[2] = 0 mg/kg, 120 h, dose level Control, time 5 day
[3] = 23 mg/kg, 72 h, dose level Low, time 3 day

Compound: Nc1ccn([C@@H]2O[C@H](CO)[C@@H](O)[C@@H]2O)c(=O)n1 [CYTARABINE]
- ABSOLUTE BASOPHIL [1]: 0 CELLS/uL
- ABSOLUTE EOSINOPHIL [1]: 0 CELLS/uL
- ABSOLUTE LYMPHOCYTE [1]: 7855.5 CELLS/uL
- ABSOLUTE MONOCYTE [1]: 36.17 CELLS/uL
- ABSOLUTE SEGMENTED NEUTROPHIL [1]: 575 CELLS/uL
- BASOPHIL [1]: 0%
- EOSINOPHIL [1]: 0%
- ERYTHROCYTE COUNT [1]: 5.14 x10E6/uL
- HEMATOCRIT [1]: 33.22%
- HEMOGLOBIN [1]: 12.97 G/DL
- LEUKOCYTE COUNT [1]: 8.47 x10E3/uL
- LYMPHOCYTE [1]: 93.17%
- MEAN CORPUSCULAR HEMOGLOBIN [1]: 25.28 pg
- MEAN CORPUSCULAR HEMOGLOBIN CONCENTRATION [1]: 39.05 G/DL
- MEAN CORPUSCULAR VOLUME [1]: 64.75 fL
- MONOCYTE [1]: 0.33%
- NEUTROPHIL [1]: 6.5%
- NUCLEATED RED BLOOD CELLS [1]: 0 /100WBC
- PLATELET COUNT [1]: 1092 x10E3/uL
- ALANINE AMINOTRANSFERASE [1]: 61.67 u/L
- ALBUMIN [1]: 4.03 G/DL
- ALKALINE PHOSPHATASE [1]: 292.33 u/L
- ASPARTATE AMINOTRANSFERASE [1]: 100.83 u/L
- BLOOD UREA NITROGEN [1]: 11 mg/dL
- CARBON DIOXIDE [1]: 34.67 mmol/L
- CHLORIDE [1]: 100.25 MEQ/L
- CHOLESTEROL [1]: 71.17 mg/dL
- CREATINE PHOSPHOKINASE [1]: 554.5 u/L
- CREATININE [1]: 0.31 mg/dL
- GLUCOSE [1]: 151 mg/dL
- LACTATE DEHYDROGENASE [1]: 88.67 u/L
- LIPASE [1]: 18.83 u/L
- PHOSPHORUS [1]: 10.42 mg/dL
- POTASSIUM [1]: 5.7 MEQ/L
- SODIUM [1]: 144.57 MEQ/L
- TOTAL BILIRUBIN [1]: 0.17 mg/dL
- TOTAL PROTEIN [1]: 5.8 G/DL
- URIC ACID [1]: 0.52 mg/dL
- ABSOLUTE BASOPHIL [2]: 0 CELLS/uL
- ABSOLUTE EOSINOPHIL [2]: 53.33 CELLS/uL
- ABSOLUTE LYMPHOCYTE [2]: 7739.83 CELLS/uL
- ABSOLUTE MONOCYTE [2]: 74.83 CELLS/uL
- ABSOLUTE SEGMENTED NEUTROPHIL [2]: 832 CELLS/uL
- BASOPHIL [2]: 0%
- EOSINOPHIL [2]: 0.67%
- ERYTHROCYTE COUNT [2]: 5.55 x10E6/uL
- HEMATOCRIT [2]: 34.77%
- HEMOGLOBIN [2]: 13.62 G/DL
- LEUKOCYTE COUNT [2]: 8.7 x10E3/uL
- LYMPHOCYTE [2]: 89.17%
- MEAN CORPUSCULAR HEMOGLOBIN [2]: 24.6 pg
- MEAN CORPUSCULAR HEMOGLOBIN CONCENTRATION [2]: 39.2 G/DL
- MEAN CORPUSCULAR VOLUME [2]: 62.78 fL
- MONOCYTE [2]: 0.67%
- NEUTROPHIL [2]: 9.5%
- NUCLEATED RED BLOOD CELLS [2]: 0 /100WBC
- PLATELET COUNT [2]: 1096 x10E3/uL
- ALANINE AMINOTRANSFERASE [2]: 50 u/L
- ALBUMIN [2]: 4.02 G/DL
- ALKALINE PHOSPHATASE [2]: 271.17 u/L
- ASPARTATE AMINOTRANSFERASE [2]: 84.17 u/L
- BLOOD UREA NITROGEN [2]: 13.33 mg/dL
- CARBON DIOXIDE [2]: 27 mmol/L
- CHLORIDE [2]: 99 MEQ/L
- CHOLESTEROL [2]: 68 mg/dL
- CREATINE PHOSPHOKINASE [2]: 313.67 u/L
- CREATININE [2]: 0.21 mg/dL
- GLUCOSE [2]: 163 mg/dL
- LACTATE DEHYDROGENASE [2]: 75.67 u/L
- LIPASE [2]: 11.5 u/L
- PHOSPHORUS [2]: 9.62 mg/dL
- POTASSIUM [2]: 5.45 MEQ/L
- SODIUM [2]: 143.1 MEQ/L
- TOTAL BILIRUBIN [2]: 0.2 mg/dL
- TOTAL PROTEIN [2]: 6.08 G/DL
- URIC ACID [2]: 0.68 mg/dL
- ABSOLUTE BASOPHIL [3]: 0 CELLS/uL
- ABSOLUTE EOSINOPHIL [3]: 0 CELLS/uL
- ABSOLUTE LYMPHOCYTE [3]: 6967 CELLS/uL
- ABSOLUTE MONOCYTE [3]: 31.33 CELLS/uL
- ABSOLUTE SEGMENTED NEUTROPHIL [3]: 568.33 CELLS/uL
- BASOPHIL [3]: 0%
- EOSINOPHIL [3]: 0%
- ERYTHROCYTE COUNT [3]: 5.13 x10E6/uL
- HEMATOCRIT [3]: 33.67%
- HEMOGLOBIN [3]: 13.23 G/DL
- LEUKOCYTE COUNT [3]: 7.57 x10E3/uL
- LYMPHOCYTE [3]: 92%
- MEAN CORPUSCULAR HEMOGLOBIN [3]: 25.8 pg
- MEAN CORPUSCULAR HEMOGLOBIN CONCENTRATION [3]: 39.3 G/DL
- MEAN CORPUSCULAR VOLUME [3]: 65.53 fL
- MONOCYTE [3]: 0.33%
- NEUTROPHIL [3]: 7.67%
- NUCLEATED RED BLOOD CELLS [3]: 0 /100WBC
- PLATELET COUNT [3]: 1145.33 x10E3/uL
- ALANINE AMINOTRANSFERASE [3]: 52 u/L
- ALBUMIN [3]: 4.23 G/DL
- ALKALINE PHOSPHATASE [3]: 313.33 u/L
- ASPARTATE AMINOTRANSFERASE [3]: 91.67 u/L
- BLOOD UREA NITROGEN [3]: 11.67 mg/dL
- CARBON DIOXIDE [3]: 32.33 mmol/L
- CHLORIDE [3]: 99.5 MEQ/L
- CHOLESTEROL [3]: 73 mg/dL
- CREATINE PHOSPHOKINASE [3]: 427 u/L
- CREATININE [3]: 0.31 mg/dL
- GLUCOSE [3]: 163 mg/dL
- LACTATE DEHYDROGENASE [3]: 93 u/L
- LIPASE [3]: 13.33 u/L
- PHOSPHORUS [3]: 11.2 mg/dL
- POTASSIUM [3]: 5.61 MEQ/L
- SODIUM [3]: 143.75 MEQ/L
- TOTAL BILIRUBIN [3]: 0.1 mg/dL
- TOTAL PROTEIN [3]: 6.17 G/DL
- URIC ACID [3]: 0.83 mg/dL
